Results published in patent US20250313563A1, “GLYCOGEN SYNTHASE KINASE 3 INHIBITORS AND USES THEREOF” (The Broad Institute, Inc., priority 2022, published 2025).
Read-outs that look alike come from different tables or passages of the source.

Experiments:
[1] = biological target: GSK3α (GST-full length GSK3α) (Homo sapiens (Human), UniProt P49840); test: GSK3α TR-FRET kinase assay; assay type: biochemical; settings: GMean, geometric mean
Summary of the method: (§1)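 Full-length GST-tagged human enzyme (1 nM) is exposed to test compound for 30 min before substrates are added. Phosphorylation of a primed biotinylated glycogen synthase peptide proceeds 100 min at room temperature at low ATP (4 μM α; 2 μM β) or high ATP (1 mM). Product is quantified by TR-FRET.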

[2] = biological target: GSK3b (GST-full length GSK3b) (Homo sapiens (Human), UniProt P49841); test: GSK3b TR-FRET kinase assay; assay type: biochemical; settings: GMean, geometric mean
Summary of the method: as §1

[3] = tested on: MDR1-MDCK cell monolayers; test: MDR1/MDCK assay (blood-brain barrier penetration potential); assay type: in vitro ADME; settings: 5 μM, pH 7.4, 120 minutes; for MDCK permeability (MDR1-MDCK); Mean; Papp (A − B): A to B; for MDCK permeability (MDR1-MDCK); Mean; Papp (B − A): B to A
Description: The MDR1/MDCK assay is run at Absorption Systems. This assay is used to determine the blood-brain barrier (BBB) penetration potential of a test compound using MDR1-MDCK cell monolayers. Catalog number EA203.
• Test compound at 5 μM in HBSSg with maximum DMSO concentration not greater than 1%.
• Confluent monolayers of MDR1-MDCK cells, 7 to 11 days old.
• Receiver well with 1% BSA in modified Hanks buffer (HBSSg) • Apical and basolateral side at pH 7.4 • Dose two monolayers in each direction (N=2) • Dose apical side for (A to B) assessment • Dose basolateral side for (B to A) assessment • Sample both apical and basolateral sides at 120 minutes • Determine the concentrations of test compound using a generic LC-MS/MS method with a minimum 4 point calibration curve.
• The quality of the cell monolayer batch is verified using control compounds before monolayers are released for use • The quality of each monolayer used in the assay is verified by a TEER measurement and by calculating the Papp for a control compound.

[4] = Microsomal stability (MIC), human; assay type: in vitro ADME; settings: human liver microsomes
Description: (§2) Stability of compound in liver microsomes was tested in duplicate by incubating compound at 1 μM for 60 minutes at 37° C. Compound level at 60 minutes was compared to level at 0 minutes, and percent remaining was calculated. Assay Parameters
(§3) Available species: human and mouse (CD-1). Compound requirements: 5 μL of a 10 mM DMSO solution. Incubation time: 60 minutes at 37° C. Test Concentration: 1 μM.
(§4) Microsomes with NADPH without compound-matrix interference. Microsomes plus compound without NADPH—non-enzymatic instability.

[5] = Microsomal stability (MIC), mouse; assay type: in vitro ADME, mouse (CD-1); settings: mouse liver microsomes; for half-life at 1 μM: CD-1, read-out: Microsome stability (mouse), in vitro T1/2
Description: as §2, §3, §4

[6] = tested on: β-catenin nuclear translocation in SH-SY5Y cells; test: β-catenin translocation assay; assay type: cell-based; settings: Homo sapiens; SH-SY5Y cells, 6 hours
Description: SH-SY5Y cells were seeded into a 96-well CellCarrier Ultra (Perkin Elmer) plate at a density of 1×10^5 cells/ml in complete DMEM. Sixteen hours following plating, media was changed to DMEM with 2% serum, and compound was added with a D300e Digital Dispenser (Tecan) for an incubation time of six hours. After compound incubation, media was removed, and cells were fixed with 4% PFA for 10 minutes at room temperature. Each well was washed three times with PBS-T and then blocked with buffer (1×PBS with 5% Normal Goat Serum and 0.3% Triton X-100) for 30 minutes at room temperature. β-Catenin primary antibody (Cell Signaling #8480) was added at 1:500 dilution in blocking buffer and the cells were allowed to incubate in primary overnight at 4° C. The following day, primary antibody was removed, each well was washed three times with PBS-T, and secondary antibody (1:2000 anti-rabbit AlexaFluor Plus 488 and 1:10,000 Hoechst 33342) was added and allowed to incubate for 60 minutes at room temperature protected from light. After one-hour, secondary antibody was removed and wells were washed four times with PBS-T before imaging on the Opera Phenix. Sixteen fields per well were imaged with a 20× water lens.
Images were quantified in the Columbus Image Data Storage and Analysis software. Cells were identified using the Hoechst nuclear stain to identify individual nuclei. Intensity of the nuclear stain was also used to determine cell viability (Viable cells <30% CV of Hoechst Intensity)

[7] = read-out: GSK3-A (TR-FRET 1 mM ATP), IC50, 1 mM ATP
[8] = read-out: GSK3-B (TR-FRET 1 mM ATP), IC50, 1 mM ATP
[9] = GSK3-A (TR-FRET 1 mM ATP), IC50, 1 mM ATP
[10] = GSK3-B (TR-FRET 1 mM ATP), IC50, 1 mM ATP

Chain of GSK3b (GST-full length GSK3b) (P49841 whole entry): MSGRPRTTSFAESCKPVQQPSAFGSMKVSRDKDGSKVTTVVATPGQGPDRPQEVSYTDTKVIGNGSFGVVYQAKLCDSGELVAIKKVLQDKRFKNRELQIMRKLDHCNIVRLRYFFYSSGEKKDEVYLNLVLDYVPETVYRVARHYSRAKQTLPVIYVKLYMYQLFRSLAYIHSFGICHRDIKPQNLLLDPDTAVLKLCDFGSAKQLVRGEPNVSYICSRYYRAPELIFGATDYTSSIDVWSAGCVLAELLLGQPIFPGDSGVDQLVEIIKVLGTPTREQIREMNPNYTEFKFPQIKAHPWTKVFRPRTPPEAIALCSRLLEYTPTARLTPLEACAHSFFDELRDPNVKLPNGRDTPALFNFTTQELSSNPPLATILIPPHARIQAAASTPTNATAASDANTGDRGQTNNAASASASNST
Chain of GSK3α (GST-full length GSK3α) (P49840 whole entry): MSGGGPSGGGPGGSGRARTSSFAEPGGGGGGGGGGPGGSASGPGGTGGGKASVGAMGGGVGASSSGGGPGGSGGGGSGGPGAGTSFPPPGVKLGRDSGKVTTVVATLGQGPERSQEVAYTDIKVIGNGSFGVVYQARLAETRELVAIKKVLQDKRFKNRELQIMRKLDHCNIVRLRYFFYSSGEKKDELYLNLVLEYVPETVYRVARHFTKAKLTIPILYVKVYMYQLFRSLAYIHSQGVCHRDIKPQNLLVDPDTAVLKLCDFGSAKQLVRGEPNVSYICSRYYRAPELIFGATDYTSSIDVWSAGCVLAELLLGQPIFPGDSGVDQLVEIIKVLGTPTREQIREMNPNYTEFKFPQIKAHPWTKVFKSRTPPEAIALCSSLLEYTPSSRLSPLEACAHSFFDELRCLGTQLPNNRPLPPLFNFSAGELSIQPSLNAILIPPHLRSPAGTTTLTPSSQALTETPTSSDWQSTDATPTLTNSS

## CN(C)S(=O)(=O)c1cccc(C2(C)C3=C(CC(C)(C)CC3=O)Nc3n[nH]c(CC(C)(C)C)c32)c1 (centres unmarked) [Compound 126012]
[1]; [7]
  IC50: 1 to 5 µM
[2]; [8]
  IC50: 0.1 to 1 µM
[3]
  MDCK permeability (MDR1-MDCK); Mean; Papp Ratio (B − A/A − B) (efflux ratio): 120
  MDCK permeability (MDR1-MDCK); Mean; Papp (A − B): 0.47 10^−6 cm/s
  MDCK permeability (MDR1-MDCK); Mean; Papp (B − A): 56.2 10^−6 cm/s

## CN1CC2(C3=C(CC(C)(C)CC3=O)Nc3n[nH]c(CC(C)(C)C)c32)c2ccccc21 (centres unmarked) [Compound 125978]
[1]; [7]
  IC50: 1 to 5 µM
[2]; [8]
  IC50: 0.1 to 1 µM
[4]
  Microsome stability (human); in vitro T1/2: 0.6 min
[5]
  Microsome stability (mouse); in vitro T1/2: 0.6 min
[3]
  MDCK permeability (MDR1-MDCK); Mean; Papp Ratio (B − A/A − B) (efflux ratio): 7.49
  MDCK permeability (MDR1-MDCK); Mean; Papp (A − B): 10.8 10^−6 cm/s
  MDCK permeability (MDR1-MDCK); Mean; Papp (B − A): 81.2 10^−6 cm/s

## Cc1ccc(S(C)(=O)=O)cc1C1(C)C2=C(CC(C)(C)CC2=O)Nc2n[nH]c(CC(C)(C)C)c21 (centres unmarked) [Compound 126397]
[1]; [7]
  IC50: 1 to 5 µM
[2]; [8]
  IC50: ≤ 0.1 µM
[4]
  Microsome stability (human); in vitro T1/2: 104.9 min
[5]
  Microsome stability (mouse); in vitro T1/2: >145 min

## Cc1[nH]nc2c1C1(CN(S(=O)(=O)CC3CC3)C1)C1=C(CC(C)(C)CC1=O)N2 [Compound 107828]
[1]; [9]
  IC50: ≤ 0.1 µM
[2]; [10]
  IC50: 0.1 to 1 µM
[5]
  half-life at 1 μM: 6.49 min

## CN1CC2(C3=C(CC(C)(C)CC3=O)Nc3n[nH]c(C4CC(F)(F)C4)c32)c2ccccc21 (centres unmarked) [Compound 119048]
[1]; [7]
  IC50: 1 to 5 µM
[2]; [8]
  IC50: 0.1 to 1 µM
[4]
  Microsome stability (human); in vitro T1/2: 1.4 min
[5]
  Microsome stability (mouse); in vitro T1/2: 0.5 min
[3]
  MDCK permeability (MDR1-MDCK); Mean; Papp Ratio (B − A/A − B) (efflux ratio): 42.3
  MDCK permeability (MDR1-MDCK); Mean; Papp (A − B): 1.65 10^−6 cm/s
  MDCK permeability (MDR1-MDCK); Mean; Papp (B − A): 70 10^−6 cm/s

## N#Cc1ccc2[nH]c(O)c(-c3ccc(CN4CCOCC4)cn3)c2c1 [AZ1080, AZD1080, reference compound]
[6]
  IC50: 3 µM

## CC(C)(C)Cc1[nH]nc2c1C(C)(c1cccc(S(=O)(=O)C(F)(F)F)c1)C1=C(CC(C)(C)CC1=O)N2 (centres unmarked) [Compound 126395]
[1]; [7]
  IC50: 1 to 5 µM
[2]; [8]
  IC50: 0.1 to 1 µM
[3]
  MDCK permeability (MDR1-MDCK); Mean; Papp Ratio (B − A/A − B) (efflux ratio): 8.9
  MDCK permeability (MDR1-MDCK); Mean; Papp (A − B): 6.48 10^−6 cm/s
  MDCK permeability (MDR1-MDCK); Mean; Papp (B − A): 57.6 10^−6 cm/s

## C[S+]([O-])c1cccc(C2(C)C3=C(CC(C)(C)CC3=O)Nc3n[nH]c(CC(C)(C)C)c32)c1 (centres unmarked) [Compound 126190]
[1]; [7]
  IC50: 1 to 5 µM
[2]; [8]
  IC50: 0.1 to 1 µM
[3]
  MDCK permeability (MDR1-MDCK); Mean; Papp Ratio (B − A/A − B) (efflux ratio): 199
  MDCK permeability (MDR1-MDCK); Mean; Papp (A − B): 0.08 10^−6 cm/s
  MDCK permeability (MDR1-MDCK); Mean; Papp (B − A): 15.7 10^−6 cm/s

## CC1(C)CC(=O)C2=C(C1)Nc1n[nH]c(C3CC3)c1C21CN(S(=O)(=O)CC2CC2)C1 [Compound 109152]
[1]; [9]
  IC50: 0.1 to 1 µM
[2]; [10]
  IC50: 0.1 to 1 µM
[5]
  half-life at 1 μM: 0.97 min

## CC(C)(C)Cc1[nH]nc2c1C(C)(c1cccc(S(C)(=O)=O)c1)C1=C(CC(C)(C)CC1=O)N2 (centres unmarked) [Compound 114687]
[1]; [7]
  IC50: 0.1 to 1 µM
[2]; [8]
  IC50: ≤ 0.1 µM
[4]
  Microsome stability (human); in vitro T1/2: 12.3 min
[5]
  Microsome stability (mouse); in vitro T1/2: 6.4 min

## CC(C)(C)Cc1[nH]nc2c1C1(CN(S(=O)(=O)CC3CC3)C1)C1=C(CC3(CCC3)CC1=O)N2 [Compound 107829]
[1]; [7]
  IC50: 1 to 5 µM
[2]; [8]
  IC50: 0.1 to 1 µM
[4]
  Microsome stability (human); in vitro T1/2: 8.877 min
[5]
  Microsome stability (mouse); in vitro T1/2: 2.084 min

## Cn1cncc1-c1cccc(C2(C)C3=C(CC(C)(C)CC3=O)Nc3n[nH]c(CC(C)(C)C)c32)c1 (centres unmarked) [Compound 126014]
[1]; [7]
  IC50: 0.1 to 1 µM
[2]; [8]
  IC50: 0.1 to 1 µM
[3]
  MDCK permeability (MDR1-MDCK); Mean; Papp Ratio (B − A/A − B) (efflux ratio): 187
  MDCK permeability (MDR1-MDCK); Mean; Papp (A − B): 0.17 10^−6 cm/s
  MDCK permeability (MDR1-MDCK); Mean; Papp (B − A): 32.1 10^−6 cm/s

## COc1cncc(F)c1-c1cccc([C@]2(C)C3=C(CC(C)(C)CC3=O)Nc3n[nH]c(CC(C)(C)C)c32)c1 [Compound 108954]
[1]; [9]
  IC50: 1 to 5 µM
[2]; [10]
  IC50: 0.1 to 1 µM
[5]
  half-life at 1 μM: 8.59 min

## CC(C)(C)Cc1[nH]nc2c1C(C)(c1cccc(N3CCOCC3)c1)C1=C(CC(C)(C)CC1=O)N2 (centres unmarked) [Compound 126400]
[1]; [7]
  IC50: 1 to 5 µM
[2]; [8]
  IC50: 0.1 to 1 µM
[3]
  MDCK permeability (MDR1-MDCK); Mean; Papp Ratio (B − A/A − B) (efflux ratio): 119
  MDCK permeability (MDR1-MDCK); Mean; Papp (A − B): 0.41 10^−6 cm/s
  MDCK permeability (MDR1-MDCK); Mean; Papp (B − A): 48.9 10^−6 cm/s

## Cn1cc(-c2cccc(C3(C)C4=C(CC(C)(C)CC4=O)Nc4n[nH]c(CC(C)(C)C)c43)c2)cn1 (centres unmarked) [Compound 126393]
[1]; [7]
  IC50: 1 to 5 µM
[2]; [8]
  IC50: 0.1 to 1 µM
[3]
  MDCK permeability (MDR1-MDCK); Mean; Papp Ratio (B − A/A − B) (efflux ratio): 92.5
  MDCK permeability (MDR1-MDCK); Mean; Papp (A − B): 0.59 10^−6 cm/s
  MDCK permeability (MDR1-MDCK); Mean; Papp (B − A): 54.5 10^−6 cm/s

## CC(C)(C)Cc1[nH]nc2c1C(C)(c1cccc(S(=O)(=O)CC3CC3)c1)C1=C(CC(C)(C)NC1=O)N2 (centres unmarked) [Compound 108005]
[1]; [7]
  IC50: 0.1 to 1 µM
[2]; [8]
  IC50: 0.1 to 1 µM
[5]
  Microsome stability (mouse); in vitro T1/2: 0.69 min

## CC1(C)CC(=O)C2=C(C1)Nc1n[nH]c(C3CC(F)(F)C3)c1C21COc2ccccc21 (centres unmarked) [Compound 127430]
[1]; [7]
  IC50: 1 to 5 µM
[2]; [8]
  IC50: 0.1 to 1 µM
[4]
  Microsome stability (human); in vitro T1/2: >145 min
[5]
  Microsome stability (mouse); in vitro T1/2: 74.5 min

## CC(C)(C)Cc1[nH]nc2c1C(C)(c1cc(S(C)(=O)=O)ccc1F)C1=C(CC(C)(C)CC1=O)N2 (centres unmarked) [Compound 125976]
[1]; [7]
  IC50: 1 to 5 µM
[2]; [8]
  IC50: 0.1 to 1 µM
[4]
  Microsome stability (human); in vitro T1/2: 26.2 min
[5]
  Microsome stability (mouse); in vitro T1/2: 36 min
[3]
  MDCK permeability (MDR1-MDCK); Mean; Papp Ratio (B − A/A − B) (efflux ratio): 301
  MDCK permeability (MDR1-MDCK); Mean; Papp (A − B): 0.2 10^−6 cm/s
  MDCK permeability (MDR1-MDCK); Mean; Papp (B − A): 61.2 10^−6 cm/s
